The record followed here is patent US8481544B2, “Antibacterial compositions” (Biota Europe Limited, priority 2006, dated 2013).

Values after ≈ are worked out from the molar mass of the structure shown.

For one assay, the system named is Enterococcus faecalis ATCC 29212. Description: MIC against Enterococcus faecalis ATCC 29212. In kind it is cell-based. The following applies: ATCC29212; Enterococcus faecalis ATCC 29212; read-out: MICs against Enterococcus faecalis, Activity. The essentials:
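MIC measured by broth microdilution or agar dilution following CLSI guidelines (M7-A7 for aerobes, M11-A6 for anaerobes).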
For the molecule `CCNC(=O)Nc1nc2cc(-c3ccc(NC(C)=O)nc3)cc(-c3ccccn3)c2s1` [Example 133, N-{5-[2-(3-Ethyl-ureido)-7-pyridin-2-yl-benzothiazol-5-yl]-pyridin-2-yl}-acetamide], the MIC was < 0.25 µg/mL.

With `CCNC(=O)Nc1nc2cc(-c3ccc(NC(C)=O)nc3)cc(-c3cnccn3)c2s1` [Example 134, N-{5-[2-(3-Ethyl-ureido)-7-pyrazin-2-yl-benzothiazol-5-yl]-pyridin-2-yl}-acetamide], the MIC is < 0.25 µg/mL.

On to `CCNC(=O)Nc1nc2cc(-c3ccc(NC(C)=O)nc3)cc(-c3ccc(N)cn3)c2s1` [Example 135, N-{5-[7-(5-Amino-pyridin-2-yl)-2-(3-ethyl-ureido)-benzothiazol-5-yl]-pyridin-2-yl}-acetamide], for which the MIC lay in the range of 0.25 to 1 µg/mL (≈ 0.559 to 2.23 µM).

On to `CCNC(=O)Nc1nc2cc(-c3ccc(NC(C)=O)nc3)cc(-c3ccc(C#N)cn3)c2s1` [Example 136, N-{5-[7-(5-Cyano-pyridin-2-yl)-2-(3-ethyl-ureido)-benzothiazol-5-yl]-pyridin-2-yl}-acetamide], for which the MIC is < 0.25 µg/mL.

In the case of `CCNC(=O)Nc1nc2cc(-c3ccc(NC(C)=O)nc3)cc(-c3nccc4cc[nH]c34)c2s1` [Example 137, N-{5-[2-(3-Ethyl-ureido)-7-(1H-pyrrolo[2,3-c]pyridin-7-yl)-benzothiazol-5-yl]-pyridin-2-yl}-acetamide], the MIC lay within 0.25 to 1 µg/mL (≈ 0.53 to 2.12 µM).

Regarding `CCNC(=O)Nc1nc2cc(-c3ccc(N)nc3)cc(-c3ccccn3)c2s1` [Example 138, 1-[5-(6-Amino-pyridin-3-yl)-7-pyridin-2-yl-benzothiazol-2-yl]-3-ethyl-urea], the MIC was < 0.25 µg/mL.

For the molecule `CCNC(=O)Nc1nc2cc(-c3cnc(N)nc3)cc(-c3cnccn3)c2s1` [Example 139, 1-[5-(2-Amino-pyrimidin-5-yl)-7-pyrazin-2-yl-benzothiazol-2-yl]-3-ethyl-urea], the MIC was < 0.25 µg/mL.

Turning to `CCNC(=O)Nc1nc2cc(-c3cccnc3)cc(-n3cccn3)c2s1` [Example 140, 1-Ethyl-3-(7-pyrazol-1-yl-5-pyridin-3-yl-benzothiazol-2-yl)-urea], the MIC lay within 0.25 to 1 µg/mL (≈ 0.686 to 2.74 µM).

`CCNC(=O)Nc1nc2cc(-n3ccccc3=O)cc(-c3cccnc3)c2s1` [Example 141, 1-Ethyl-3-[5-(2-oxo-2H-pyridin-1-yl)-7-pyridin-3-yl-benzothiazol-2-yl]-urea]: the MIC lay in the range of 2 to 16 µg/mL (≈ 5.11 to 40.9 µM).

With `CCNC(=O)Nc1nc2cc(-n3ccnc3)cc(-c3ccccn3)c2s1` [Example 142, 1-Ethyl-3-(5-imidazol-1-yl-7-pyridin-2-yl-benzothiazol-2-yl)-urea], the MIC was < 0.25 µg/mL.

With `CCNC(=O)Nc1nc2cc(-c3cncc(OC)c3)cc(-c3cncc(OC)c3)c2s1` [Example 143, 1-[5,7-Bis-(5-methoxy-pyridin-3-yl)-benzothiazol-2-yl]-3-ethyl-urea], the MIC lay in the range of 0.25 to 1 µg/mL (≈ 0.574 to 2.3 µM).

In the case of `CCNC(=O)Nc1nc2cc(-c3ccc(CO)cc3)cc(-c3ccc(CO)cc3)c2s1` [Example 144, 1-[5,7-Bis-(4-hydroxymethyl-phenyl)-benzothiazol-2-yl]-3-ethyl-urea], the MIC was in the range of 0.25 to 1 µg/mL (≈ 0.577 to 2.31 µM).

Consider `CCNC(=O)Nc1nc2cc(-c3cnc(N)nc3)cc(-c3cnc(N)nc3)c2s1` [Example 145, 1-[5,7-Bis-(2-amino-pyrimidin-5-yl)-benzothiazol-2-yl]-3-ethyl-urea], for which the MIC lay in the range of 2 to 16 µg/mL (≈ 4.91 to 39.3 µM).

As to `CCNC(=O)Nc1nc2cc(-c3ccc(CN4CCOCC4)cc3)cc(-c3ccc(CN4CCOCC4)cc3)c2s1` [Example 146, 1-[5,7-Bis-(4-morpholin-4-ylmethyl-phenyl)-benzothiazol-2-yl]-3-ethyl-urea], the MIC is 2 to 16 µg/mL (≈ 3.5 to 28 µM).

On to `CCNC(=O)Nc1nc2cc(-c3cncnc3)cc(-c3cncnc3)c2s1` [Example 147, 1-(5,7-Di-pyrimidin-5-yl-benzothiazol-2-yl)-3-ethyl-urea], for which the MIC lay in the range of 2 to 16 µg/mL (≈ 5.3 to 42.4 µM).

Take `CCNC(=O)Nc1nc2cc(-c3ccc(NC(C)=O)nc3)cc(-c3ccc(NC(C)=O)nc3)c2s1` [Example 148, N-{5-[7-(6-Acetylamino-pyridin-3-yl)-2-(3-ethyl-ureido)-benzothiazol-5-yl]-pyridin-2-yl}-acetamide]: the MIC lay within 0.25 to 1 µg/mL (≈ 0.511 to 2.04 µM).

For the molecule `CCNC(=O)Nc1nc2cc(-c3cccnc3)cc(N)c2s1` [Example 149, 1-(7-Amino-5-pyridin-3-yl-benzothiazol-2-yl)-3-ethyl-urea], the MIC was in the range of 2 to 16 µg/mL (≈ 6.38 to 51.1 µM).

`CCNC(=O)Nc1nc2cc(-c3cccnc3)cc(NC(=O)NCC)c2s1` [Example 150, 1-Ethyl-3-[2-(3-ethyl-ureido)-5-pyridin-3-yl-benzothiazol-7-yl]-urea]: the MIC fell in the range of 2 to 16 µg/mL (≈ 5.2 to 41.6 µM).

In the case of `CCNC(=O)Nc1nc2cc(-c3cccnc3)cc(C(=O)OC)c2s1` [Example 151, 2-(3-Ethyl-ureido)-5-pyridin-3-yl-benzothiazole-7-carboxylic acid methyl ester], the MIC was in the range of 0.25 to 1 µg/mL (≈ 0.701 to 2.81 µM).

With `CCNC(=O)Nc1nc2cc(-c3cccnc3)cc(C(=O)NCC)c2s1` [Example 152, 2-(3-Ethyl-ureido)-5-pyridin-3-yl-benzothiazole-7-carboxylic acid ethylamide], the MIC fell in the range of 2 to 16 µg/mL (≈ 5.41 to 43.3 µM).

For the molecule `CCNC(=O)Nc1nc2cc(-c3cccnc3)cc(C(=O)NN)c2s1` [Example 153, 1-Ethyl-3-(7-hydrazinocarbonyl-5-pyridin-3-yl-benzothiazol-2-yl)-urea], the MIC was 2 to 16 µg/mL (≈ 5.61 to 44.9 µM).

As to `CCNC(=O)Nc1nc2cc(-c3cnc(N)nc3)cc(-c3ccccn3)c2s1` [Example 154, 1-[5-(2-Amino-pyrimidin-5-yl)-7-pyridin-2-yl-benzothiazol-2-yl]-3-ethyl-urea], the MIC was < 0.25 µg/mL.

Regarding `CCNC(=O)Nc1nc2cc(-c3ccccn3)cc(-c3cccnc3)c2s1` [Example 155, 1-Ethyl-3-(5-pyridin-2-yl-7-pyridin-3-yl-benzothiazol-2-yl)-urea], the MIC is 2 to 16 µg/mL (≈ 5.33 to 42.6 µM).

Turning to `C=CCc1cc(-c2cccnc2)cc2nc(NC(=O)NCC)sc12` [Example 156, 1-(7-Allyl-5-pyridin-3-yl-benzothiazol-2-yl)-3-ethyl-urea], the MIC lay in the range of 0.25 to 1 µg/mL (≈ 0.739 to 2.95 µM).

`CCNC(=O)Nc1nc2cc(-c3cccnc3)cc(-c3csc(OC)n3)c2s1` [Example 157, 1-Ethyl-3-[7-(2-methoxy-thiazol-4-yl)-5-pyridin-3-yl-benzothiazol-2-yl]-urea]: the MIC is 0.25 to 1 µg/mL (≈ 0.608 to 2.43 µM).

In the case of `CCNC(=O)Nc1nc2cc(-c3cccnc3)cc(-c3cscn3)c2s1` [Example 158, 1-Ethyl-3-(5-pyridin-3-yl-7-thiazol-4-yl-benzothiazol-2-yl)-urea], the MIC lay in the range of 0.25 to 1 µg/mL (≈ 0.655 to 2.62 µM).

Turning to `CCNC(=O)Nc1nc2cc(-c3cccnc3)cc(-c3cncnc3)c2s1` [Example 159, 1-Ethyl-3-(5-pyridin-3-yl-7-pyrimidin-5-yl-benzothiazol-2-yl)-urea], the MIC fell in the range of 0.25 to 1 µg/mL (≈ 0.664 to 2.66 µM).

Turning to `CCNC(=O)Nc1nc2cc(-c3cccnc3)cc(-c3cccnn3)c2s1` [Example 160, 1-Ethyl-3-(7-pyridazin-3-yl-5-pyridin-3-yl-benzothiazol-2-yl)-urea], the MIC lay within 2 to 16 µg/mL (≈ 5.31 to 42.5 µM).

In the case of `CCNC(=O)Nc1nc2cc(-c3cccnc3)cc(-c3cncs3)c2s1` [Example 161, 1-Ethyl-3-(5-pyridin-3-yl-7-thiazol-5-yl-benzothiazol-2-yl)-urea], the MIC is < 0.25 µg/mL.

For `CCNC(=O)Nc1nc2cc(-c3cccnc3)cc(-c3nccn3C)c2s1` [Example 162, 1-Ethyl-3-[7-(1-methyl-1H-imidazol-2-yl)-5-pyridin-3-yl-benzothiazol-2-yl]-urea], the MIC is 2 to 16 µg/mL (≈ 5.28 to 42.3 µM).

In the case of `CCNC(=O)Nc1nc2cc(-c3cccnc3)cc(-c3cncn3C)c2s1` [Example 164, 1-Ethyl-3-[7-(3-methyl-3H-imidazol-4-yl)-5-pyridin-3-yl-benzothiazol-2-yl]-urea], the MIC lay in the range of 2 to 16 µg/mL (≈ 5.28 to 42.3 µM).

With `CCNC(=O)Nc1nc2cc(-c3cccnc3)cc(-c3ncco3)c2s1` [Example 165, 1-Ethyl-3-(7-oxazol-2-yl-5-pyridin-3-yl-benzothiazol-2-yl)-urea], the MIC lay within 0.25 to 1 µg/mL (≈ 0.684 to 2.74 µM).

`CCNC(=O)Nc1nc2cc(-c3cccnc3)cc(-c3cccc(N4CCOCC4)n3)c2s1` [Example 166, 1-Ethyl-3-[7-(6-morpholin-4-yl-pyridin-2-yl)-5-pyridin-3-yl-benzothiazol-2-yl]-urea]: the MIC is 0.25 to 1 µg/mL (≈ 0.543 to 2.17 µM).

On to `CCNC(=O)Nc1nc2cc(-c3cccnc3)cc(-c3cccc(N(C)C)n3)c2s1` [Example 168, 1-[7-(6-Dimethylamino-pyridin-2-yl)-5-pyridin-3-yl-benzothiazol-2-yl]-3-ethyl-urea], for which the MIC lay within 0.25 to 1 µg/mL (≈ 0.597 to 2.39 µM).

For `CCNC(=O)Nc1nc2cc(-c3cccnc3)cc(-c3cc(N(C)C)ccn3)c2s1` [Example 169, 1-[7-(4-Dimethylamino-pyridin-2-yl)-5-pyridin-3-yl-benzothiazol-2-yl]-3-ethyl-urea], the MIC lay in the range of 0.25 to 1 µg/mL (≈ 0.597 to 2.39 µM).

In the case of `CCNC(=O)Nc1nc2cc(-c3cccnc3)cc(-c3csc(O)n3)c2s1` [Example 172, 1-Ethyl-3-[7-(2-hydroxy-thiazol-4-yl)-5-pyridin-3-yl-benzothiazol-2-yl]-urea], the MIC lay in the range of 2 to 16 µg/mL (≈ 5.03 to 40.3 µM).

With `CCNC(=O)Nc1nc2cc(-c3cccnc3)cc(-c3cccc(O)n3)c2s1` [Example 173, 1-Ethyl-3-[7-(6-hydroxy-pyridin-2-yl)-5-pyridin-3-yl-benzothiazol-2-yl]-urea], the MIC fell in the range of 2 to 16 µg/mL (≈ 5.11 to 40.9 µM).

Take `CCNC(=O)Nc1nc2cc(-c3cccnc3)cc(-c3cc(C)ccn3)c2s1` [Example 176, 1-Ethyl-3-[7-(4-methyl-pyridin-2-yl)-5-pyridin-3-yl-benzothiazol-2-yl]-urea]: the MIC was < 0.25 µg/mL.

Turning to `CCNC(=O)Nc1nc2cc(-c3cccnc3)cc(-c3cccc(C)n3)c2s1` [Example 177, 1-Ethyl-3-[7-(6-methyl-pyridin-2-yl)-5-pyridin-3-yl-benzothiazol-2-yl]-urea], the MIC was < 0.25 µg/mL.

For the molecule `CCNC(=O)Nc1nc2cc(-c3cncc(OC)c3)cc(-c3ccccn3)c2s1` [Example 179, 1-Ethyl-3-[5-(5-methoxy-pyridin-3-yl)-7-pyridin-2-yl-benzothiazol-2-yl]-urea], the MIC was < 0.25 µg/mL.

The assay is the same for the next values; noted with them: Enterococcus faecalis, ATCC29212; ATCC 29212; Table 5; read-out: MIC against Enterococcus faecalis (Activity).
For `CCNC(=O)Nc1nc2cc(-c3cnccn3)nc(-c3cnccn3)c2s1` [Example 181, 1-(4,6-di(pyrazin-2-yl)thiazolo[5,4-c]pyridin-2-yl)-3-ethylurea], the MIC was in the range of 0.25 to 1 µg/mL (≈ 0.661 to 2.64 µM).
